Data taken from ChEMBL document CHEMBL4145521, “Regioselective synthesis of 3,4-diaryl-5-unsubstituted isoxazoles, analogues of natural cytostatic combretastatin A4” (Eur J Med Chem, 2018).

Experiments:
Format in all cases: functional
[1] = tested on: 786-0; experiment: Cytotoxicity against human 786-0 cells assessed as cell growth at 0.01 uM incubated for 48 hrs by sulforhodamine B assay relative to control; conditions: 786-0, 48 h, read-out: Activity
[2] = tested on: DU-145; experiment: Cytotoxicity against human DU145 cells assessed as cell growth at 0.01 uM incubated for 48 hrs by sulforhodamine B assay relative to control; conditions: DU-145, 48 h, read-out: Activity
[3] = tested on: T47D; experiment: Cytotoxicity against human T47D cells assessed as cell growth at 0.01 uM incubated for 48 hrs by sulforhodamine B assay relative to control; conditions: read-out: Activity
[4] = tested on: MDA-MB-468; experiment: Cytotoxicity against human MDA-MB-468 cells assessed as cell growth at 0.01 uM incubated for 48 hrs by sulforhodamine B assay relative to control; conditions: MDA-MB-468, 48 h, read-out: Activity
[5] = tested on: SR; experiment: Cytotoxicity against human SR cells assessed as cell growth at 0.1 uM incubated for 48 hrs by sulforhodamine B assay relative to control; conditions: read-out: Activity
[6] = tested on: SF-295; experiment: Cytotoxicity against human SF295 cells assessed as cell growth at 0.1 uM incubated for 48 hrs by sulforhodamine B assay relative to control; conditions: SF-295, 48 h, read-out: Activity
[7] = tested on: LOX IMVI; experiment: Cytotoxicity against human LOXIMVI cells assessed as cell growth at 0.1 uM incubated for 48 hrs by sulforhodamine B assay relative to control; conditions: read-out: Activity
[8] = tested on: OVCAR-8; experiment: Cytotoxicity against human OVCAR8 cells assessed as cell growth at 0.1 uM incubated for 48 hrs by sulforhodamine B assay relative to control; conditions: OVCAR-8, 48 h, read-out: Activity
[9] = tested on: UO-31; experiment: Cytotoxicity against human UO31 cells assessed as cell growth at 0.1 uM incubated for 48 hrs by sulforhodamine B assay relative to control; conditions: UO-31, 48 h, read-out: Activity
[10] = tested on: MDA-MB-231; experiment: Cytotoxicity against human MDA-MB-231 cells assessed as cell growth at 0.1 uM incubated for 48 hrs by sulforhodamine B assay relative to control; conditions: MDA-MB-231, 48 h, read-out: Activity
[11] = tested on: HOP-92; experiment: Cytotoxicity against human HOP92 cells assessed as cell growth at 1 uM incubated for 48 hrs by sulforhodamine B assay relative to control; conditions: HOP-92, 48 h, read-out: Activity
[12] = tested on: SF-539; experiment: Cytotoxicity against human SF539 cells assessed as cell growth at 1 uM incubated for 48 hrs by sulforhodamine B assay relative to control; conditions: SF-539, 48 h, read-out: Activity
[13] = tested on: SNB-19; experiment: Cytotoxicity against human SNB19 cells assessed as cell growth at 1 uM incubated for 48 hrs by sulforhodamine B assay relative to control; conditions: SNB-19, 48 h, read-out: Activity
[14] = tested on: SK-MEL-28; experiment: Cytotoxicity against human SK-MEL-28 cells assessed as cell growth at 1 uM incubated for 48 hrs by sulforhodamine B assay relative to control; conditions: SK-MEL-28, 48 h, read-out: Activity
[15] = tested on: MDA-MB-435; experiment: Cytotoxicity against human MDA-MB-435 cells assessed as cell growth at 10 uM incubated for 48 hrs by sulforhodamine B assay relative to control; conditions: MDA-MB-435, 48 h, read-out: Activity
[16] = tested on: CAKI-1; experiment: Cytotoxicity against human Caki1 cells assessed as cell growth at 10 uM incubated for 48 hrs by sulforhodamine B assay relative to control; conditions: CAKI-1, 48 h, read-out: Activity
[17] = tested on: Hs-578T; experiment: Cytotoxicity against human Hs 578T cells assessed as cell growth at 10 uM incubated for 48 hrs by sulforhodamine B assay relative to control; conditions: read-out: Activity
[18] = tested on: BT-549; experiment: Cytotoxicity against human BT549 cells assessed as cell growth at 10 uM incubated for 48 hrs by sulforhodamine B assay relative to control; conditions: BT-549, 48 h, read-out: Activity
[19] = tested on: CCRF-CEM; experiment: Cytotoxicity against human CCRF-CEM cells assessed as cell growth at 100 uM incubated for 48 hrs by sulforhodamine B assay relative to control; conditions: read-out: Activity
[20] = tested on: EKVX; experiment: Cytotoxicity against human EKVX cells assessed as cell growth at 100 uM incubated for 48 hrs by sulforhodamine B assay relative to control; conditions: read-out: Activity
[21] = tested on: HCT-15; experiment: Cytotoxicity against human HCT15 cells assessed as cell growth at 100 uM incubated for 48 hrs by sulforhodamine B assay relative to control; conditions: HCT-15, 48 h, read-out: Activity
[22] = tested on: SW-620; experiment: Cytotoxicity against human SW620 cells assessed as cell growth at 100 uM incubated for 48 hrs by sulforhodamine B assay relative to control; conditions: SW-620, 48 h, read-out: Activity
[23] = tested on: 786-0; experiment: Cytotoxicity against human 786-0 cells assessed as cell growth at 100 uM incubated for 48 hrs by sulforhodamine B assay relative to control; conditions: 786-0, 48 h, read-out: Activity
[24] = tested on: DU-145; experiment: Cytotoxicity against human DU145 cells assessed as cell growth at 100 uM incubated for 48 hrs by sulforhodamine B assay relative to control; conditions: DU-145, 48 h, read-out: Activity
[25] = tested on: SF-539; experiment: Cytotoxicity against human SF539 cells incubated for 48 hrs by sulforhodamine B assay; conditions: SF-539, 48 h
[26] = tested on: SK-MEL-28; experiment: Cytotoxicity against human SK-MEL-28 cells incubated for 48 hrs by sulforhodamine B assay; conditions: SK-MEL-28, 48 h
[27] = tested on: SK-MEL-5; experiment: Cytotoxicity against human SK-MEL-5 cells incubated for 48 hrs by sulforhodamine B assay; conditions: SK-MEL-5, 48 h
[28] = tested on: UACC-62; experiment: Cytotoxicity against human UACC62 cells incubated for 48 hrs by sulforhodamine B assay; conditions: UACC-62, 48 h
[29] = tested on: OVCAR-5; experiment: Cytotoxicity against human OVCAR5 cells incubated for 48 hrs by sulforhodamine B assay; conditions: OVCAR-5, 48 h
[30] = tested on: RXF 393; experiment: Cytotoxicity against human RXF393 cells incubated for 48 hrs by sulforhodamine B assay; conditions: RXF 393, 48 h
[31] = tested on: T47D; experiment: Cytotoxicity against human T47D cells incubated for 48 hrs by sulforhodamine B assay
[32] = read-out: LC50 (the source's name)
[33] = read-out: pLC50 (the source's name) (converted)

COc1ccc(-c2nocc2-c2cc(OC)c(OC)c(OC)c2)cc1
growth at 0.01 µM [1]: 85%
growth at 0.01 µM [2]: 99%
growth at 0.01 µM [3]: 81%
growth at 0.01 µM [4]: 94%
growth at 0.1 µM [5]: 42%
growth at 0.1 µM [6]: 36%
growth at 0.1 µM [7]: 55%
growth at 0.1 µM [8]: 74%
growth at 0.1 µM [9]: 70%
growth at 0.1 µM [10]: 72%
growth at 1 µM [11]: 46%
growth at 1 µM [12]: 1%
growth at 1 µM [13]: 36%
growth at 1 µM [14]: 58%
growth at 10 µM [15]: -29%
growth at 10 µM [16]: 36%
growth at 10 µM [17]: 28%
growth at 10 µM [18]: 9%
growth at 100 µM [19]: 4%
growth at 100 µM [20]: 7%
growth at 100 µM [21]: 1%
growth at 100 µM [22]: 7%
growth at 100 µM [23]: -17%
growth at 100 µM [24]: 7%
GI50 ([25]; read-out: GI50): 0.173 µM
LC50 (concentration killing 50% of cells) ([25]; read-out: LC50): > 100 µM
TGI ([25]; read-out: TGI): 13.7 µM
GI50 ([25]; read-out: pGI50 (converted)): 0.174 µM
LC50 (concentration killing 50% of cells) ([25]; read-out: pLC50 (converted)): > 100 µM
TGI ([25]; read-out: pTGI (converted)): 13.8 µM
GI50 ([26]; read-out: GI50): 4.96 µM
CC50 [26, 32]: > 100 µM
TGI ([26]; read-out: TGI): 80.8 µM
GI50 ([26]; read-out: pGI50 (converted)): 5.01 µM
CC50 [26, 33]: > 100 µM
TGI ([26]; read-out: pTGI (converted)): 81.3 µM
GI50 ([27]; read-out: GI50): 0.0715 µM
LC50 (concentration killing 50% of cells) ([27]; read-out: LC50): 27.7 µM
TGI ([27]; read-out: TGI): 5.25 µM
GI50 ([27]; read-out: pGI50 (converted)): 0.0708 µM
LC50 (concentration killing 50% of cells) ([27]; read-out: pLC50 (converted)): 27.5 µM
TGI ([27]; read-out: pTGI): 5.25 µM
GI50 ([28]; read-out: GI50): 0.0557 µM
LC50 (concentration killing 50% of cells) ([28]; read-out: LC50): > 100 µM
TGI ([28]; read-out: TGI): 12.9 µM
GI50 ([28]; read-out: pGI50 (converted)): 0.0562 µM
LC50 (concentration killing 50% of cells) ([28]; read-out: pLC50 (converted)): > 100 µM
TGI ([28]; read-out: pTGI (converted)): 12.9 µM
GI50 ([29]; read-out: GI50): 1.65 µM
LC50 ([29]; read-out: LC50): > 100 µM
TGI ([29]; read-out: TGI): > 100 µM
GI50 ([29]; read-out: pGI50 (converted)): 1.66 µM
LC50 ([29]; read-out: pLC50 (converted)): > 100 µM
TGI ([29]; read-out: pTGI): > 100 µM
GI50 ([30]; read-out: GI50): 0.243 µM
CC50 [30, 32]: > 100 µM
GI50 ([30]; read-out: pGI50 (converted)): 0.245 µM
CC50 [30, 33]: > 100 µM
LC50 ([31]; read-out: LC50): > 100 µM
TGI ([31]; read-out: TGI): 86.3 µM
LC50 ([31]; read-out: pLC50 (converted)): > 100 µM
TGI ([31]; read-out: pTGI (converted)): 87.1 µM
